These results are taken from PMC8583966, “Proteasome Inhibitors and Their Pharmacokinetics, Pharmacodynamics, and Metabolism” (International Journal of Molecular Sciences, 2021).

Read-outs that look alike come from different tables or passages of the source. Bounds are passed on as bounds.

The nature of data set [1]: KZR-616 and metabolites in human plasma of SLE patients. The data set is classed as in vivo. Conditions: KZR-616 75 mg. As to the method: Following repeat-dose SC administration, there was no apparent accumulation of immunoproteasome inhibition, although cumulative constitutive proteasome inhibition in whole blood was observed, likely due to the irreversible mechanism of KZR-616 inhibition and the inability of enucleated red blood cells (the major cellular source of constitutive proteasome) to produce new proteasomes. […] As in carfilzomib, and oprozomib, KZR-616 was not stable when incubated in HLMs in the absence of NADPH, indicating non-CYP enzymes were involved in its clearance. […] In pooled plasma samples from 4 patients with systemic lupus erythematous (SLE) receiving a KZR-616 dose of 75 mg, the diol was the major metabolite, and other metabolites from oxidation, hydrolysis + dehydrogenation, oxidation + dehydrogenation double oxidation were less than 1% of the total peak area of all components (Table 2).

The next data set concerns LMP2. Also noted: method as in PMID 30380863. The settings on record: mouse arthritis model, active dose; cited from earlier work.
For a further data set, the system named is LMP7. The arrangement: method as in PMID 30380863. The settings on record: mouse arthritis model, active dose; cited from earlier work.
Data set [2] can be described thus: PK of KZR-616 and analogs after single SC dose in monkeys. Conditions: cynomolgus monkey, in vivo, single SC dose 3 mg/kg. The procedure:
(§1) To further evaluate the role of epoxide hydrolase in the metabolism of KZR-616, two analogs were selected for PK and PD studies in cynomolgus monkey to compare with KZR-616. […] Following single subcutaneous (SC) administration to monkeys at 3 mg/kg of these 3 compounds AUC values were the highest with KZR-59240, followed by KZR-616 and KZR-59177. The PK of both parent and diol for each compound were consistent with the stability results in MLM in the absence of NADPH, in which the CYP enzymes were not activated (Table 3), and, as predicted, the diol derivatives were determined to be the major metabolites for all compounds. The PK and PD of KZR-616 was assessed using 2 different drug product formulations, one containing 10% (w/v) PS-80, and the other 2% (w/v) trehalose.

The test system of the next data set is proteasome subunits. Conditions: summary table; cited from earlier work.
The conditions of data set [3]: healthy volunteers, SC; cited from earlier work.
On the set-up of data set [4]: method as in PMID 34234005. The settings on record: absence of NADPH; cited from earlier work.
The conditions of data set [5]: summary table; cited from earlier work.
For data set [6] the following is noted: summary table; cited from earlier work. The source holds these as a separate data set.
Data set [7] can be described thus: PK of KZR-616 in two drug product formulations. The format is in vivo. The settings on record: 10% (w/v) PS-80 vs 2% (w/v) trehalose formulation. The procedure:
as §1

Data set [8] relates to LMP7 subunit of the immunoproteasome. The settings on record: patients, doses ≥15 mg/m2; cited from earlier work.
Data set [9] relates to β5 subunit of the constitutive proteasome. Conditions: patients, doses ≥15 mg/m2; cited from earlier work.
For data set [10] the following is noted: in vivo; cited from earlier work.
A further data set has as its system β2. Also noted: method as in PMID 20110052. The settings on record: whole blood, doses as high as 45 mg/m2; cited from earlier work.
The conditions of data set [11]: human, in vivo, iv; cited from earlier work.
The next data set deals with β1. The arrangement: method as in PMID 20110052. The settings on record: whole blood, doses as high as 45 mg/m2; cited from earlier work.
The next data set relates to proteasome CT-L activity. Conditions: following the first dose for each week of dosing; cited from earlier work.
For data set [12] the following is noted: in vivo; cited from earlier work. The source holds these as a separate data set.

Take `COc1ccc([C@@H](O)[C@H](NC(=O)[C@H](C)NC(=O)CN2CCOCC2)C(=O)N[C@@H](CC2=CCCC2)C(=O)[C@@]2(C)CO2)cc1` [KZR-616, (2S,3R)-N-((S)-3-(Cyclopent-1-en-1-yl)-1-((R)-2-methyloxiran-2-yl)-1oxopropan-2-yl)-3-hydroxy-3-(4-methoxyphenyl)-2-((S)-2-(2morpholinoacetamido)propanamido)propenamide]: the “Component in Plasma as % of Total XIC (Extracted Ion Chromatogram) Area” value (“Component in Plasma as % of Total XIC” for short) in data set [1] (Subject 110-004, SLE patient) is given as 61.2%. For the same molecule, in data set [1] (Subject 112-021, SLE patient), the “Component in Plasma as % of Total XIC” value is 49.0%. The “Component in Plasma as % of Total XIC” value in data set [1] (Subject 113-002, SLE patient) came out at 46.5%. For the same molecule, the “Component in Plasma as % of Total XIC” value in [1] (Subject 116-012, SLE patient) was found to be 51.8%. For the same molecule, in the data set with LMP2, the LMP2 inhibition is on record as ~ 40%. Further, the LMP7 inhibition result with LMP7 is given as “complete”. Also, in data set [2], the AUC(0-inf) stood at 740 ± 188 ng·h/mL, the highest level (Cmax) was 441 ± 114 ng/mL, the Tmax worked out at 20 ± 8.16 min and the half-life is 63 ± 7.8 min. In the data set on proteasome subunits, the “Subunit Inhibition” value is “LMP2 and LMP7”. Further, in data set [3], the Tmax is less than 1 h and the t1/2 is on record as less than 4 h. In data set [4], the “stability in HLMs” value is reported as “not stable”. In data set [5], the Absorption result is “fast” and the Clearance entry is “fast”. Besides, in [6], the “Metabolic Pathwas” value is recorded as “Microsomal epoxide hydrolase”. For the same molecule, in data set [7], the “difference in Cmax between formulations” value was determined as 2 fold and the “total exposure (AUC) in both formulations” value was “equivalent”.
For `CC(C)C[C@H](NC(=O)[C@H](CCc1ccccc1)NC(=O)CN1CCOCC1)C(=O)N[C@@H](Cc1ccccc1)C(=O)N[C@@H](CC(C)C)C(=O)[C@@]1(C)CO1` [Carfilzomib], the “average inhibition of LMP7” value in data set [8] is reported as “greater than 83%”. The “average inhibition of β5” value in data set [9] is reported as “greater than 83%”. For the same molecule, the dose excreted intact result in data set [10] is recorded as “less than 1%”. The “inhibition of β2” value in the data set on β2 is given as “Less than 18%”. Besides, in the data set with proteasome subunits, the “Subunit Inhibition” value was “ß5 and LMP7”. Further, the t1/2 in [11] is recorded as less than 30 min. The “inhibition of β1” value in the data set on β1 is recorded as “Less than 18%”. Moreover, the “time proteasome inhibition was maintained” value in the data set on proteasome CT-L activity is no less than 48 h. Also, in [12], the “rates of peripheral neuropathy lower than with bortezomib” value is greater than 60%.

As usually defined, the AUC(0-inf) is the area under the concentration-time curve extrapolated to infinity. For orientation: Cmax means the peak of the concentration-time curve. The Tmax is the time at which the peak concentration occurs. For orientation: half-life means the time needed for the level to fall by half in the phase considered. Read a high half-life as slow decline.
